According to US10314771B2, “Methods and compositions for preventing and treating tooth erosion” (University of Tennessee Research Foundation, priority 2013, dated 2019):

Method: The capacity of sodium bicarbonate to neutralize acid saliva was assessed. A pool of saliva was collected from 5 individuals, and the normal pH of the saliva was measured before brushing or eating. […] In order to simulate an acidic challenge, the pH of the saliva was adjusted to 2.5 with 0.01M HCl.
The saliva was titrated with a 3M sodium bicarbonate solution and measured the volume of solution necessary to neutralize the saliva to a pH of 6.8.

volume needed to neutralize the acidic saliva to a pH of 7.0 (3M solution): 2.0 mLs
Structure (SMILES): O=C([O-])O.[Na+] [Sodium Bicarbonate, sodium bicarbonate]
rinsing time sufficient to help neutralize the saliva (rinsing with a sodium bicarbonate solution): 30 s
